Measured values taken from ChEMBL document CHEMBL5678797, “AZD7762, a novel checkpoint kinase inhibitor, drives checkpoint abrogation and potentiates DNA-targeted therapies” (Mol Cancer Ther, 2008).
The source made the active and inactive calls. No cut-off for these calls is given here.

Experiments:
SW-620 [1] = experiment: Antitumor activity against human SW620 cells xenografted in athymic mouse model assessed as tumor free survival at 50 mg/kg measured after 17 to 94 days post tumor implantation by caliper method; type: functional, organism-based; conditions: time 17-94 day
SW-620 [2] = experiment: Antitumor activity against human SW620 cells xenografted in athymic mouse model assessed as complete tumor regression at 50 mg/kg measured after 17 to 94 days post tumor implantation by caliper method; type: functional, organism-based; conditions: time 17-94 day
SW-620 [3] = experiment: Induction of cell cycle arrest in human SW620 cells assessed as increase in cdc25A level at 0.1 uM measured after 8 hrs by Western blot analysis; type: functional, cell-based

| Compound | Activity (SW-620 [1]) | Activity (SW-620 [2]) | Activity (SW-620 [3]) |
| --- | --- | --- | --- |
| CCc1c2c(nc3ccc(OC(=O)N4CCC(N5CCCCC5)CC4)cc13)-c1cc3c(c(=O)n1C2)COC(=O)[C@]3(O)CC | inactive | inactive |  |
| Nc1ccn([C@@H]2O[C@H](CO)[C@@H](O)C2(F)F)c(=O)n1 |  |  | inactive |
